Tests used:
[1] = system: Dermacenter variabilis; experiment: Cattle - efficacy against multi-host ticks (Dermacenter variabilis); assay type: in vivo
How it was run: (§1)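 Day 0 treatment at 5 mg/kg, given subcutaneously (NMP 60%/PEG300 40%) or as pour-on (DMA 92%/DEET 8%); controls received excipients only. Each animal carried 30–40 unfed adults per species (sex ratio 1:1), placed in an ear sleeve (R. appendiculatus) or a flank stockinet patch (D. variabilis), before and at several times after treatment; unattached ticks were removed at 2 days and excluded. Active means ≥80% efficacy.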

[2] = system: Lepeophtheirus salmonis; experiment: Salmon - in vivo efficacy against sea lice using gavage administration; details: po, 168 h, read-out: therapeutic efficacy against (pre-)adult sea lice (% reduction vs control), salmon, 5 mg/kg once by gavage, day -28 infestation, counted day 7
[3] = system: Rhipicephalus sanguineus or Haemaphysalis elliptica ticks; experiment: Dog - efficacy against ticks; assay type: in vivo; details: for therapeutic efficacy against ticks (active = efficacy ≥80 percent): D2
How it was run: (§2)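 Beagles were infested with 80 C. felis fleas and 50 R. sanguineus or H. elliptica ticks two days before treatment (Day 0) and repeatedly thereafter. Test compound was given at 10 mg/kg orally in gelatin capsule, as spot-on (DMA 92%/DEET 8%) or subcutaneously (PEG 200 90%/water 10%). Controls received empty capsule plus spot-on excipients; ≥80 percent efficacy counted as active.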

[4] = system: Rhipicephalus microplus; experiment: Cattle - efficacy against one-host tick; assay type: in vivo
How it was run: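 Cattle infested whole-body with up to 3000 R. microplus larvae two or three times weekly around Day 0, then given 1 mg/kg subcutaneously or topically (spray or pour-on); controls got excipients only. Engorged females dropping were counted daily; efficacy by ADEQ per WAAVP guidelines, onset/duration as first/last day ≥80%.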

[5] = system: juvenile soft ticks (Ornithodoros moubata); experiment: Guinea pig - efficacy against argaside tick; assay type: in vivo
How it was run: (§3)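 Guinea pigs given 5 mg/kg test compound orally (gavage) or s.c. in 10% DMF/emulsifier plus 90% water for injection, with local co-infestations of Ornithodoros moubata juveniles and Cimex lectularius at several post-treatment times. Engorged parasites scored dead/damaged about 24 h after collection; % inhibition versus pretreatment baseline by modified Schneider-Orelli formula.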

[6] = system: Copepodids (juvenile sea lice stage of Lepeophtheirus salmonis); experiment: Juvenile sea lice contact assay; details: Lepeophtheirus salmonis; 1 nM in seawater; ~24 h; read-out: Sea lice inhibition (% of dead+damaged copepodids)
Description: Copepodids (juvenile sea lice stage of Lepeophtheirus salmonis) were exposed to seawater spiked with declining concentrations of a test compound (dissolved in a DMSO sea-water mixture). Sea lice inhibition (% of dead+damaged copepodids) was assessed after approximately 24 hours of continuous exposure. The vitality of used parasites was confirmed in a negative (solvent) control group.

[7] = system: Rhipicephalus appendiculatus; experiment: Cattle - efficacy against multi-host ticks (Rhipicephalus appendiculatus); assay type: in vivo
How it was run: as §1

[8] = system: bed bugs (Cimex lectularius); experiment: Guinea pig - efficacy against bed bug; assay type: in vivo
How it was run: as §3

[9] = system: Ctenocephalides felis fleas; experiment: Dog - efficacy against fleas; assay type: in vivo; details: for therapeutic efficacy against fleas (active = efficacy ≥80 percent): D2
How it was run: as §2

[10] = 5 mg/kg subcutaneous, re-infested after 7 days
[11] = 5 mg/kg subcutaneous, re-infested after 14 days
[12] = 5 mg/kg subcutaneous, re-infested after 21 days
[13] = 5 mg/kg subcutaneous, re-infested after 28 days
[14] = 5 mg/kg subcutaneous, re-infested after 35 days
[15] = 5 mg/kg subcutaneous, therapeutic, Day 2
[16] = 5 mg/kg topical pour-on, re-infested after 7 days
[17] = 5 mg/kg topical pour-on, re-infested after 14 days
[18] = 5 mg/kg topical pour-on, re-infested after 21 days
[19] = 5 mg/kg topical pour-on, re-infested after 28 days
[20] = 5 mg/kg topical pour-on, re-infested after 35 days
[21] = 5 mg/kg topical pour-on, therapeutic, Day 2
[22] = 5 mg/kg, both administration routes (topical, subcutaneous)
[23] = 1 mg/kg pour on in Imwitor 988+Miglyol 840
[24] = 1 mg/kg topical (Compound 4: spray solution; others: DMA 92%/DEET 8% pour-on)
[25] = 5 mg/kg subcutaneous, after 7 days
[26] = 5 mg/kg subcutaneous, after 10 days
[27] = 5 mg/kg, at least until Day 10, both administration routes (oral, subcutaneous)

O=C(Nc1ncc(F)cc1F)c1cc(NC(=O)[C@H]2[C@H](c3cc(Cl)cc(Cl)c3)C2(Cl)Cl)ccc1Cl [Compound 453]
77 days: duration of efficacy (last Day with efficacy ≥80 percent) [4, 23]
therapeutic efficacy: efficacy ≥80 percent against Dermacenter variabilis [1, 15] | efficacy ≥80 percent against Dermacenter variabilis [1, 21] | efficacy against ticks in dogs (conclusion) ([3]; 10 mg/kg) | efficacy ≥80 percent against Rhipicephalus appendiculatus [7, 15] | efficacy ≥80 percent against Rhipicephalus appendiculatus [7, 21] | efficacy against fleas in dogs (conclusion) ([9]; 10 mg/kg)
2 days: onset of efficacy (first Day with efficacy ≥80 percent) ([4]; 1 mg/kg pour on in Miglyol 840)
63 days: duration of efficacy (last Day with efficacy ≥80 percent) [4, 24]
100%: effective in treating existing tick infestations [1, 22] | inhibition in vivo at 5 mg/kg [2] | effective to control ticks [5, 27] | inhibition at 0.001 µM [6] | effective in treating existing tick infestations [7, 22] | effective to control bed bugs [8, 27]
82 days: duration of efficacy (last Day with efficacy ≥80 percent) ([4]; 1 mg/kg subcutaneous)
1 days: onset of efficacy (first Day with efficacy ≥80 percent) [4, 23]
70/72: active against ticks up to (efficacy ≥80 percent) ([3]; 10 mg/kg topical spot-on, repeated infestations)
3 days: onset of efficacy (first Day with efficacy ≥80 percent) ([4]; 1 mg/kg subcutaneous) | onset of efficacy (first Day with efficacy ≥80 percent) [4, 24]
immediate activity: activity against tick nymphs (≥80% inhibition, killed+damaged) ([5]; 5 mg/kg oral, Day 0) | activity against tick nymphs (≥80% inhibition, killed+damaged) ([5]; 5 mg/kg subcutaneous, Day 0) | activity against bed bugs (≥80% inhibition, killed+damaged) ([8]; 5 mg/kg oral, Day 0) | activity against bed bugs (≥80% inhibition, killed+damaged) ([8]; 5 mg/kg subcutaneous, Day 0)
active: therapeutic efficacy against ticks (active = efficacy ≥80 percent) ([3]; 10 mg/kg oral) | therapeutic efficacy against ticks (active = efficacy ≥80 percent) ([3]; 10 mg/kg topical spot-on) | therapeutic efficacy against fleas (active = efficacy ≥80 percent) ([9]; 10 mg/kg oral) | therapeutic efficacy against fleas (active = efficacy ≥80 percent) ([9]; 10 mg/kg topical spot-on)
84 days: duration of efficacy (last Day with efficacy ≥80 percent) ([4]; 1 mg/kg pour on in Miglyol 840)
prophylactic efficacy: efficacy ≥80 percent against Dermacenter variabilis [1, 10] | efficacy ≥80 percent against Dermacenter variabilis [1, 11] | efficacy ≥80 percent against Dermacenter variabilis [1, 12] | efficacy ≥80 percent against Dermacenter variabilis [1, 13] | efficacy ≥80 percent against Dermacenter variabilis [1, 14] | efficacy ≥80 percent against Dermacenter variabilis [1, 16] | efficacy ≥80 percent against Dermacenter variabilis [1, 17] | efficacy ≥80 percent against Dermacenter variabilis [1, 18] | efficacy ≥80 percent against Dermacenter variabilis [1, 19] | efficacy ≥80 percent against Dermacenter variabilis [1, 20] | efficacy ≥80 percent against Rhipicephalus appendiculatus [7, 10] | efficacy ≥80 percent against Rhipicephalus appendiculatus [7, 11] | efficacy ≥80 percent against Rhipicephalus appendiculatus [7, 12] | efficacy ≥80 percent against Rhipicephalus appendiculatus [7, 13] | efficacy ≥80 percent against Rhipicephalus appendiculatus [7, 14] | efficacy ≥80 percent against Rhipicephalus appendiculatus [7, 16] | efficacy ≥80 percent against Rhipicephalus appendiculatus [7, 17] | efficacy ≥80 percent against Rhipicephalus appendiculatus [7, 18] | efficacy ≥80 percent against Rhipicephalus appendiculatus [7, 19] | efficacy ≥80 percent against Rhipicephalus appendiculatus [7, 20]
activity: activity against tick nymphs (≥80% inhibition, killed+damaged) ([5]; 5 mg/kg oral, after 7 days) | activity against tick nymphs (≥80% inhibition, killed+damaged) ([5]; 5 mg/kg oral, after 10 days) | activity against tick nymphs (≥80% inhibition, killed+damaged) [5, 25] | activity against tick nymphs (≥80% inhibition, killed+damaged) [5, 26] | activity against bed bugs (≥80% inhibition, killed+damaged) ([8]; 5 mg/kg oral, after 7 days) | activity against bed bugs (≥80% inhibition, killed+damaged) ([8]; 5 mg/kg oral, after 10 days) | activity against bed bugs (≥80% inhibition, killed+damaged) [8, 25] | activity against bed bugs (≥80% inhibition, killed+damaged) [8, 26]

Source: patent US20240315993A1, “ANTIPARASITIC COMPOUNDS” (Intervet Inc., priority 2021, published 2024)
